Read-outs that look alike come from different tables or passages of the source.
Legend:
HIF-1α = settings: cited from earlier work
[1] = test system: angiogenesis (hemoglobin content of Matrigel plug); experiment: Matrigel plug assay in C57BL/6J mice; type: in vivo, mouse; settings: Compound 12 100 nM, gefitinib 5 μM in Matrigel, 10 days
Method: HIF-1α is synthesized by growth factor signaling pathways, such as those of EGFR [30] [31]. Inhibition of HIF-1α in its pathways of synthesis, as well as in its pathway of degradation, would seem to make for a more efficient anti-cancer/anti-angiogenesis treatment. To confirm this, we performed a tumor allogaft experiment using Lewis lung carcinoma (LLC) cells. 1 × 10^6 LLC cells were inoculated into the mouse flank subcutaneously (s.c.), and treatment with Compound 12 (5 mg/kg) and/or gefitinib (an EGFR inhibitor, 50 mg/kg), via intraperitoneal (i.p.) administration, was performed every other day for 20 days. […] To confirm the effect of Compound 12 on angiogenesis, we analyzed angiogenesis using the Matrigel plug assay. […]
Figure 6 Compound 12 suppressed allogaft tumor growth and enhanced the effects of a chemotherapeutic agent (A, B) Lewis lung carcinoma cells were inoculated into flanks of C57BL/6J mice (Day 0). […] Tumor size (A) and tumor weight (B) were measured three times a week and on the final day, respectively. […] The content of hemoglobin was quantified and graphed. (D) Tumor tissue sections (10 μm) indicated were stained with H&E and immunostained with anti-CD31 antibody to detect microvessel density; CD31+ cell percentages were then calculated and graphed. […] (F) Images and quantitative comparisons (graph) for Ki67+ proliferating cells in tumor center regions are shown. […]

[2] = test system: Lewis lung carcinoma (LLC) cells; experiment: Lewis lung carcinoma allograft in C57BL/6J mice with immunohistochemistry; type: in vivo, mouse
Method: HIF-1α is synthesized by growth factor signaling pathways, such as those of EGFR [30] [31]. Inhibition of HIF-1α in its pathways of synthesis, as well as in its pathway of degradation, would seem to make for a more efficient anti-cancer/anti-angiogenesis treatment. To confirm this, we performed a tumor allogaft experiment using Lewis lung carcinoma (LLC) cells. 1 × 10^6 LLC cells were inoculated into the mouse flank subcutaneously (s.c.), and treatment with Compound 12 (5 mg/kg) and/or gefitinib (an EGFR inhibitor, 50 mg/kg), via intraperitoneal (i.p.) administration, was performed every other day for 20 days. At Day 20, mice were sacrificed and tumor tissue was fixed in formaldehyde for 1 h for further histological examination. […] To confirm the effect of Compound 12 on angiogenesis, we analyzed angiogenesis using the Matrigel plug assay. […] To confirm the effects of Compound 12 on anti-angiogenesis, we sectioned the tumor tissues to determine microvessel density (MSD) via immunohistochemistry (using CD31 antibody).
Figure 6 Compound 12 suppressed allogaft tumor growth and enhanced the effects of a chemotherapeutic agent (A, B) Lewis lung carcinoma cells were inoculated into flanks of C57BL/6J mice (Day 0). From two days after inoculation, mice were treated intraperitoneally with Compound 12 (5 mg/kg body weight) and gefitinib (50 mg/kg body weight), three times a week, for 18 days and then sacrificed. Tumor size (A) and tumor weight (B) were measured three times a week and on the final day, respectively. Tumor masses were photographed and shown in box below the graph. **P < 0.05 versus control group. (C) Matrigel was treated with DMSO, Compound 12 (100 nM), and gefitinib (5 μM) and inoculated in the flank of C57BL/6J mice. After 10 days matrigel plug was removed and photographed. The content of hemoglobin was quantified and graphed. (D) Tumor tissue sections (10 μm) indicated were stained with H&E and immunostained with anti-CD31 antibody to detect microvessel density; CD31+ cell percentages were then calculated and graphed. Scale bar, 100 μm. **P < 0.05 versus control group. (E) Images and quantitative comparisons (graph) for hypoxic regions, immunostained CA9 protein, and microvessels (CD31+ cells) in tumor center regions are shown. Scale bar, 100 μm. **P < 0.05 versus control group. (F) Images and quantitative comparisons (graph) for Ki67+ proliferating cells in tumor center regions are shown. Scale bar, 100 μm. **P < 0.05 versus control group.
We determined levels of hypoxia in tissues via: 1) antibodies against the hypoxic cell marker pimonidazole (PIMO), and 2) checking expression levels of carbonic anhydrase (CA9), a downstream target of HIF-1.
LLC cells (1 × 10^6) were injected subcutaneously into the flanks of 6-week-old C57BL/6J mice (Day 0)(SLC, Japan). Tumor size and body weight were measured 3 time a week. Tumor tissues were removed at day 20 after completion of injection of vehicle or drugs and fixed with 4% paraformaldehyde (PFA). After tissue processing for frozen sample preparation protocol, samples were embedded in OCT compound and frozen quickly by liquid nitrogen. Frozen blocks were cut into 10 μm sections and stained with hematoxylin and eosin (H&E) for light microscopy. Additional tissue sections for immunohistochemistry were blocked with 5% goat serum in PBST (0.03% Triton X-100 in PBS) and then incubated for 3 h at RT with following primary antibodies, anti-CD31 and anti-Ki67. To detect the hypoxic area in the tumors, Hypoxyprobe-1™ (60 mg/kg, Natural Pharmacia International) was iv injected 90 min before tissue fixation. Tumors were harvested, sectioned and stained with FITC-conjugated anti-Hypoxyprobe antibody.

[3] = test system: chick chorioallantoic membrane angiogenesis; experiment: Chick embryo chorioallantoic membrane (CAM) assay; type: in vivo; settings: applied to ED 4.5 CAM for two days; Compound 12 0.1 μg and 1 μg
Method: Figure 5 Compound 12 suppressed HIF-1α target gene expression, and confirmation of in vitro results via determination of effects on angiogenesis in vivo (A) A549 cells were treated with Compound 12 (at concentrations of 0 nM, 1 nM, 10 nM, and 100 nM) for 16 h. The mRNA levels of HIF-1α target genes were determined by semiquantitative RT-PCR. β-actin was used as an internal control. D. DMSO vehicle control. N, normoxia; H, hypoxia. (B) A549 cells were treated with serum-reduced culture media containing Compound 12 (at concentrations of 0 nM, 10 nM, and 100 nM) for 16 h. Media supernatant was collected, and secreted VEGF was determined by ELISA after removal of cellular debris. N, normoxia; H, hypoxia. **P < 0.01 versus hypoxia (H) DMSO (D)-treated control. (C) HUVECs were treated with Compound 12, at the indicated concentrations, in the presence of VEGF (20 ng/mL) for 24 h in 1% serum-containing media. […] Cells that migrated through the membrane (8 μm pore size) were stained with hematoxylin and eosin, pictured as shown in upper panel, and counted (graph). *P < 0.05, **P < 0.01 versus VEGF-treated control. […] (F) Compound 12 (0.1 μg and 1 μg dosages) and retinoic acid (RA, positive control) were applied to the ED 4.5 CAM for two days, neovessel formation from the large vessels was observed, and percentages of positive angiogenic eggs (from total eggs tested) were calculated. […]

[4] = read-out: IC50 of HIF-1α inhibitor

## CC1(C)C=Cc2c(ccc(C(=O)/C=C/c3cccs3)c2O)O1 [SYP-5]
HIF-1α; [4]
  IC50: 10 µM

## COc1cc2ncnc(Nc3ccc(F)c(Cl)c3)c2cc1OCCCN1CCOCC1 [gefitinib, reference compound]
[1]
  anti-angiogenic activity, Matrigel plug (hemoglobin content): anti-angiogenic activity was increased
[2]; LLC allograft tumor sections
  levels of PIMO and CA9 in tumors, single agent: significantly diminished
  microvessel density (MSD), CD31, single agent: significantly decreased MSD
[2]; LLC allograft tumor sections, single agent
  cells expressing Ki-67 protein in tumors: significantly decreased
[2]; LLC allograft, C57BL/6J mice, i.p., Compound 12 5 mg/kg, gefitinib 50 mg/kg
  tumor growth, single agent: inhibited tumor growth significantly

## CC(C)C[C@H](NC(=O)[C@H](Cc1ccccc1)NC(=O)c1cnccn1)B(O)O [bortezomib]
HIF-1α; prostate cancer cells
  concentrations inhibiting p300-HIF-1α binding / HIF-1α: 0.6 to 30 nM

## OCc1ccc(-c2nn(Cc3ccccc3)c3ccccc23)o1 [YC-1, 3-(5′-hydroxymethyl-2′-furyl)-1-benzyl indazole]
HIF-1α; [4]
  IC50: 2 to 50 µM

## CS[C@H]1SC[C@H]2C(=O)N(C)[C@@H](C(C)C)C(=O)OC[C@@H](NC(=O)c3cnc4ccccc4n3)C(=O)N[C@@H](C)C(=O)N(C)[C@@H]1C(=O)N(C)[C@@H](C(C)C)C(=O)OC[C@@H](NC(=O)c1cnc3ccccc3n1)C(=O)N[C@@H](C)C(=O)N2C [echinomycin]
HIF-1α; reference not given, read-out: inhibitory concentration of HIF-1α inhibitor
  IC50: 0.0012 µM

## CC1=C(/C=C/C(C)=C/C=C/C(C)=C/C(=O)O)C(C)(C)CCC1 [retinoic acid, reference compound]
[3]
  CAM angiogenesis: significantly suppressed CAM angiogenesis

## COC(=O)c1ccc(O)c(NC(=O)COc2ccc(C34CC5CC(CC(C5)C3)C4)cc2)c1 [LW6]
HIF-1α; [4]
  IC50: 2.5 to 3 µM
